Laboratory results reported in BigSolDB 2.1.

CC1Cc2ccccc2N1NC(=O)c1ccc(Cl)c(S(N)(=O)=O)c1 (stereo not given)
solubility (mole fraction)
Details	in 2-butanone	in acetone	in acetonitrile	in cyclohexane	in ethanol	in ethyl acetate	in isopropanol	in methanol	in n-propanol	in toluene
278.15 K	0.0155	0.0204	0.00184	1.28e-06	0.00383	0.000455	0.0012	0.00524	0.00285	4.36e-06
283.15 K	0.0175	0.0228	0.00278	2.34e-06	0.00514	0.000769	0.00187	0.00676	0.00398	6.4e-06
288.15 K	0.0198	0.0257	0.00391	3.75e-06	0.00709	0.00115	0.00279	0.00877	0.00531	1.08e-05
293.15 K	0.0225	0.0288	0.00536	5.88e-06	0.00913	0.00165	0.00386	0.0115	0.00685	1.68e-05
298.15 K	0.0255	0.0322	0.00714	9.3e-06	0.0116	0.00235	0.00535	0.0147	0.00884	2.54e-05
303.15 K	0.0291	0.036	0.00953	1.45e-05	0.0148	0.00336	0.00732	0.0187	0.0114	3.62e-05
308.15 K	0.0329	0.0402	0.0124	2.23e-05	0.0186	0.00464	0.00979	0.023	0.0143	5.21e-05
313.15 K	0.0371	0.0445	0.0158	3.36e-05	0.0227	0.00638	0.013	0.0276	0.0177	7.52e-05
318.15 K	0.0417	0.0495	0.0199	5.02e-05	0.0275	0.00855	0.0168	0.033	0.0219	0.000106
